# Active and inactive are the calls of the source.
# What was measured:
# BJ [1] = assay: BJ-TERT fibroblast viability loss – cell-based, RAS-independent, luminescence, dose response (AID 1933); type: functional; settings: Homo sapiens
# BJ [2] = assay: cells; type: functional, cell-based; settings: Homo sapiens
# BJ [3] = assay: BJ-TERT-LT-ST fibroblast viability loss – cell-based, RAS-independent, luminescence, dose response (AID 1935); type: functional; settings: Homo sapiens;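 further: BJ fibroblasts immortalized with TERT plus LT and ST oncogenes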
# [4] = DRD fibroblast viability loss – cell-based, non-viral oncogenic, luminescence, dose response (AID 1934); type: functional; settings: Homo sapiens
# [5] = molecular target: Latent membrane protein 1 (Human herpesvirus 4 (strain B95-8), UniProt P03230); assay: LMP1 TES1 pathway selectivity over dsRED control – imaging, HEK293T, dual-color eGFP/dsRED, cherry-picks, selectivity assay for LMP1 NF-kB inhibitor project, dose response (AID 588398); type: functional, cell-based
# Latent membrane protein 1, sequence (P03230 whole entry): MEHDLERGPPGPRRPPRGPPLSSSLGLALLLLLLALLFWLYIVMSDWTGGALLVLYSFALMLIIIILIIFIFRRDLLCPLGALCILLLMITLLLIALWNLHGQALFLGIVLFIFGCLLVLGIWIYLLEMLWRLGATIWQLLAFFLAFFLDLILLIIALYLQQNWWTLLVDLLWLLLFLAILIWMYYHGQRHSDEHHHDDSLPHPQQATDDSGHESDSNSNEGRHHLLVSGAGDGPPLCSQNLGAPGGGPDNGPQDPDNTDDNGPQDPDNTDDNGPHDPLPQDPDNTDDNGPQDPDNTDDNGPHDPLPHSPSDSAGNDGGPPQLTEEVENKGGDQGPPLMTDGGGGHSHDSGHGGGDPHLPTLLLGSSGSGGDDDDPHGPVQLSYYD
# Cysteine protease ATG4B = Cysteine protease ATG4B (Homo sapiens, UniProt Q9Y4P1); type: functional;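 further: Fluorescence-based dose-response confirmation assay measuring inhibition of ATG4B activity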
# Cysteine protease ATG4B, sequence (Q9Y4P1 whole entry): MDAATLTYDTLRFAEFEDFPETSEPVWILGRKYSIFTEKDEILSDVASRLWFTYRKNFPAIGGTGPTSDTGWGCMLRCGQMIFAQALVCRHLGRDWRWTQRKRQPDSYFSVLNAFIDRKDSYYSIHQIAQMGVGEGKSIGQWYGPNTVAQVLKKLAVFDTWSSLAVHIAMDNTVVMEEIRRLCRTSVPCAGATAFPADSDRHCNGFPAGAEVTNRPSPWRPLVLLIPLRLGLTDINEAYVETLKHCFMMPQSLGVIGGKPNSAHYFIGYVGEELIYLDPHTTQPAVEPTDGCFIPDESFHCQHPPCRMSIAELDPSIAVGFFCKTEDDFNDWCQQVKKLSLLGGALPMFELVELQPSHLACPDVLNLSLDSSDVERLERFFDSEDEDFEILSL
# Phospholipase A2 = Phospholipase A2 (Homo sapiens, UniProt P04054); type: functional;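 further: confirmatory dose-response counterscreen on phospholipase A2, testing hits that came from an ultra-high-throughput screen for ATG4B inhibitors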
# Phospholipase A2, sequence (P04054 whole entry): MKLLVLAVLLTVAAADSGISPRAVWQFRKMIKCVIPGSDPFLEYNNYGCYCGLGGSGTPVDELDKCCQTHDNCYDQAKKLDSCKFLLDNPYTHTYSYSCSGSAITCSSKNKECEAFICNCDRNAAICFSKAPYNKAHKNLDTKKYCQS
# HEK293 [6] = assay: inhibition of NOD1-driven NF-kB reporter – cell-based, luminescence, uHTS, primary screen (AID 1578); type: functional; settings: Homo sapiens
# HEK293 [7] = assay: cells; type: functional, cell-based; settings: Homo sapiens
# HEK293 [8] = assay: cells; type: functional, cell-based; settings: Homo sapiens; remark: listed apart in the source
# [9] = Luminescence-based counterscreen assay for KLF5 inhibitors: dose response cell-based high throughput screening assay to identify cytotoxic compounds using the IEC-6 intestinal epithelial cell line. [Related pubchem assays: 1700 (Primary screen.), 1834 (Confirmation screen.), 1858 (Summary AID.), 1905 (Counterscreen.)]; type: functional
# [10] = molecular target: Nucleotide-binding oligomerization domain-containing protein 2 (Homo sapiens, UniProt Q9HC29); assay: inhibition of NOD2-driven NF-kB reporter – cell-based, luminescence, uHTS, HEK293 (AID 1566); type: functional
# Nucleotide-binding oligomerization domain-containing protein 2, sequence (Q9HC29 whole entry, the tested form may be a part): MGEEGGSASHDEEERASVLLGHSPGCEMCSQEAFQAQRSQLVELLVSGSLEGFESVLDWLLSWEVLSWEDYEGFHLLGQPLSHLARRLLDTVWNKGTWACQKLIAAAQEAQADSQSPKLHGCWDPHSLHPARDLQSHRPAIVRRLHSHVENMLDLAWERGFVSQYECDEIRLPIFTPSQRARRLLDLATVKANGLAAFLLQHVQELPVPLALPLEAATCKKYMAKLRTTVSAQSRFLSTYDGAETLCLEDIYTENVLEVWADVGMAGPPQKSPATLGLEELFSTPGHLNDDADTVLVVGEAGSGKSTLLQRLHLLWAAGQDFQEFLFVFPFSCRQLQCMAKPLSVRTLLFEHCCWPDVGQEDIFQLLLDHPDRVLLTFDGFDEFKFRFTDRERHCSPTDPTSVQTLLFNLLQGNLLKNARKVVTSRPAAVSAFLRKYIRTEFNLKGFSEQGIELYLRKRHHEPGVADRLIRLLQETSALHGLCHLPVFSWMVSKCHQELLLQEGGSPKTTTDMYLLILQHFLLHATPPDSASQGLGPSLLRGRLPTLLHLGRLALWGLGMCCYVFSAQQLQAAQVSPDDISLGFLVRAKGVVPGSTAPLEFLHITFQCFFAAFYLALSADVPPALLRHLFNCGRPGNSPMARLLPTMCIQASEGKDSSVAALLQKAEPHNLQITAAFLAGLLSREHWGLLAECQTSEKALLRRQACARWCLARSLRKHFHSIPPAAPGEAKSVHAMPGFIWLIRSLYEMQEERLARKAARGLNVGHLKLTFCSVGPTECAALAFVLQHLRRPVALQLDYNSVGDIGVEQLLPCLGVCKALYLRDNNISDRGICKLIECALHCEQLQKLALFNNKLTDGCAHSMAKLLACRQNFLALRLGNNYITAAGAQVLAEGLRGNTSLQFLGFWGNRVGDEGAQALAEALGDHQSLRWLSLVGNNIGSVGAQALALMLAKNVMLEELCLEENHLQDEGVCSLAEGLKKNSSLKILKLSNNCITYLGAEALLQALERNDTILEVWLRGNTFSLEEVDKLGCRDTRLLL
# HEK293 [11] = assay: NOD2 signaling inhibitors in MDP-stimulated cells, cell-based, uHTS, luminescence (AID 2001); type: functional; settings: Homo sapiens
# HEK293 [12] = assay: cells; type: functional, cell-based; settings: Homo sapiens; remark: listed apart in the source
# Tumor necrosis factor = Tumor necrosis factor (Homo sapiens, UniProt P01375); assay: analog potency on TNFa NF-kB signaling – cell-based, revised, SAR follow-up (AID 2337); type: functional
# Tumor necrosis factor, sequence (P01375 whole entry, the tested form may be a part): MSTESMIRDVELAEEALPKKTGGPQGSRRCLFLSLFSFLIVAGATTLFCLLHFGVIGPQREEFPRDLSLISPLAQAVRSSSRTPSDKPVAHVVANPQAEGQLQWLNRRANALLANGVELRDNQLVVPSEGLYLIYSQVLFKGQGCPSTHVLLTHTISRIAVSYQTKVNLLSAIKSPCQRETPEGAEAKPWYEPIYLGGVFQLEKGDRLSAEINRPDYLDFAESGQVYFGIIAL
# [13] = molecular target: T1, Nucleotide-binding oligomerization domain-containing protein 1 (Homo sapiens, UniProt Q9Y239); assay: blockers of NOD1 pathway activity – revised, SAR follow-up (AID 2333); type: functional
# T1 sequence (Q9Y239 whole entry): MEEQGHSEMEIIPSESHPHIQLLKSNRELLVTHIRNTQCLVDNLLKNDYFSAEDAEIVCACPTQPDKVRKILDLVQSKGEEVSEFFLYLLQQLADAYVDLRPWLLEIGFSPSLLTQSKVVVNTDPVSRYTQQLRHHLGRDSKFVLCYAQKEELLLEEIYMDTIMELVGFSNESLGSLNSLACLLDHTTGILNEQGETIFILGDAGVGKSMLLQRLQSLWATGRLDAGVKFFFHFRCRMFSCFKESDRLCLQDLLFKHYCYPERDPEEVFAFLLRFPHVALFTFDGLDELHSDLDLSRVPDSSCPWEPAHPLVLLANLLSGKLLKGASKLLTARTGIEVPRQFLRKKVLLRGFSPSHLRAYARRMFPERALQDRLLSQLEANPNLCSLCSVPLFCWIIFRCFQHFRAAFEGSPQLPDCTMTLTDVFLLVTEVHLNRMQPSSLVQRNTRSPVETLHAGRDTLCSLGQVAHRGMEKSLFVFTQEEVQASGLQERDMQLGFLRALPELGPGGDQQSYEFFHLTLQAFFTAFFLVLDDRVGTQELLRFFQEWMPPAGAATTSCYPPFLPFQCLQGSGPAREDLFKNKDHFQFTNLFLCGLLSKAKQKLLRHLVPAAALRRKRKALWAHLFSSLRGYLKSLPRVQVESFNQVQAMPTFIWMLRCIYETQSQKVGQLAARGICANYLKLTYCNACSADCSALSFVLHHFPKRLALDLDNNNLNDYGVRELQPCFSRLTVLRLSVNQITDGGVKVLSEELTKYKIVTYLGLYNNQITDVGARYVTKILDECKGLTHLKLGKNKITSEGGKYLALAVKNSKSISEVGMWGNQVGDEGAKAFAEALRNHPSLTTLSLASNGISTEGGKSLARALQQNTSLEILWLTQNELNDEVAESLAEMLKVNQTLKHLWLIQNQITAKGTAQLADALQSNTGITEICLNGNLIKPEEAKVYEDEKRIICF
# [14] = HEK-293T viability loss after treatment – luminescence, T-cell screen hits, cytotoxicity control for TCR NF-kB inhibitor project, dose response (AID 489026); type: functional, cell-based;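 further: cells exposed to compound about 14 hours before the viability readout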
# H4 [15] = assay: inhibitors of control reporter signal in H4 cells – cell-based, plate reader, dry powder samples, counter-screen for prion reporter project, dose response (AID 540255); type: functional; settings: Homo sapiens
# H4 [16] = assay: Inhibitors of Prion Protein 5' UTR mRNA Measured in Cell-Based System Using Plate Reader - 2078-01_Inhibitor_Dose_DryPowder_Activity. [Related pubchem assays (depositor defined):AID488894]; type: functional; settings: Homo sapiens
# HEK293 [17] = assay: cells; settings: Homo sapiens
# [18] = molecular target: Eukaryotic translation initiation factor 4H (Homo sapiens, UniProt Q15056); assay: eIF4H binding inhibition – biochemical, uHTS, fluorescence polarization, translation initiation inhibitor project, primary screen (AID 2012)
# [19] = molecular target: Induced myeloid leukemia cell differentiation protein Mcl-1 (Homo sapiens, UniProt Q07820); type: functional
# Induced myeloid leukemia cell differentiation protein Mcl-1, sequence (Q07820 whole entry): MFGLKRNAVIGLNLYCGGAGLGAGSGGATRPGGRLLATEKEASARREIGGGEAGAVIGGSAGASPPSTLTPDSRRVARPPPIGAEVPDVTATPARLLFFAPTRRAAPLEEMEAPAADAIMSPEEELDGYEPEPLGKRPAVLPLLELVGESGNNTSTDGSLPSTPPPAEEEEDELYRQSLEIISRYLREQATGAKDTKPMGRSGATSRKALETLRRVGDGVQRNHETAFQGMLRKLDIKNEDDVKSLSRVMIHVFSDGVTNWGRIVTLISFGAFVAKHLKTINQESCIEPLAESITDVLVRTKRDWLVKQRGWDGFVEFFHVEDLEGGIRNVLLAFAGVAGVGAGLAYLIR
# [20] = molecular target: Polyadenylate-binding protein 1 (Homo sapiens, UniProt P11940); assay: blockers of PABP interaction with poly(A) – biochemical, fluorescence polarization, […] (AID 2014)
# Polyadenylate-binding protein 1, sequence (P11940 whole entry): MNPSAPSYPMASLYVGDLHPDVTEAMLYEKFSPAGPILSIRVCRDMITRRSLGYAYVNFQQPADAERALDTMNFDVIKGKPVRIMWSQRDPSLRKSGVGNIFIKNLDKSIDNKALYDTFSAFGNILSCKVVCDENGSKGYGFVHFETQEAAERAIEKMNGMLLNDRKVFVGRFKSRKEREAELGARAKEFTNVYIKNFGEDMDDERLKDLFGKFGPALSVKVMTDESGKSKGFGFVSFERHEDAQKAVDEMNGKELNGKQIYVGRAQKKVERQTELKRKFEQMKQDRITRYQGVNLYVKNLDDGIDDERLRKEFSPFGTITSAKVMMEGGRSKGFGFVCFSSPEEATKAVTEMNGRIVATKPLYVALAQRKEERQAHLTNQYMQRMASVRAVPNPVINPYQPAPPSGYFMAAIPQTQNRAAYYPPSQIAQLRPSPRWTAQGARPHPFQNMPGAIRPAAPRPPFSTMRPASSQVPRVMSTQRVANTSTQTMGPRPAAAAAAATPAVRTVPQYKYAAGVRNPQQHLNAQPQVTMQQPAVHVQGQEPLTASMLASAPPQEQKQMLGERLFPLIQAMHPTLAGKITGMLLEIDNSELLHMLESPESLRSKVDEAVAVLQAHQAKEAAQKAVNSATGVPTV
# [21] = molecular target: Beta-adrenergic receptor kinase 1 (Homo sapiens, UniProt P25098); assay: aptamer displacement from bead-bound GRK2 – biochemical, cherry pick 1, bead flow cytometry, dose response (AID 504500)
# Beta-adrenergic receptor kinase 1, sequence (P25098 whole entry): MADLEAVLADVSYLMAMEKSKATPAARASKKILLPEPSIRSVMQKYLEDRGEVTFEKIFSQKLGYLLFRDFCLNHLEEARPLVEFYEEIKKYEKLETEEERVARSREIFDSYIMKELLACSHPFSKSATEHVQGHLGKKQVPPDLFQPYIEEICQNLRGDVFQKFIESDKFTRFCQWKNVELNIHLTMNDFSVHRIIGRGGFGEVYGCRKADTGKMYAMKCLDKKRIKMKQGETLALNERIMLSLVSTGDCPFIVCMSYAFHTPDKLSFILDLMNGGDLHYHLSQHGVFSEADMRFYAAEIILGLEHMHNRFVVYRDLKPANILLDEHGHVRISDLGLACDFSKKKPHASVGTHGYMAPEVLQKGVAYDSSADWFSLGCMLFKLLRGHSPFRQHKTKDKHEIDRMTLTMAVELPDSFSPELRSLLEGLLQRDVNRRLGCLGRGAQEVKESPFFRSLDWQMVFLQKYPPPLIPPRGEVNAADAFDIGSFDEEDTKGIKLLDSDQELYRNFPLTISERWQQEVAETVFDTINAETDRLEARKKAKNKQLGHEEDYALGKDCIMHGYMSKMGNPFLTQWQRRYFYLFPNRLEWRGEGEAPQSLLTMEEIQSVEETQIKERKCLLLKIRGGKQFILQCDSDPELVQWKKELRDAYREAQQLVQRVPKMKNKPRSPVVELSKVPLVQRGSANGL
# [22] = molecular target: T2, Apoptotic protease-activating factor 1 (Homo sapiens, UniProt O14727); assay: activation of Apaf-1 mediated apoptosis – fluorescent, uHTS hits, dose response (AID 588554); type: functional
# T2 sequence (O14727 whole entry): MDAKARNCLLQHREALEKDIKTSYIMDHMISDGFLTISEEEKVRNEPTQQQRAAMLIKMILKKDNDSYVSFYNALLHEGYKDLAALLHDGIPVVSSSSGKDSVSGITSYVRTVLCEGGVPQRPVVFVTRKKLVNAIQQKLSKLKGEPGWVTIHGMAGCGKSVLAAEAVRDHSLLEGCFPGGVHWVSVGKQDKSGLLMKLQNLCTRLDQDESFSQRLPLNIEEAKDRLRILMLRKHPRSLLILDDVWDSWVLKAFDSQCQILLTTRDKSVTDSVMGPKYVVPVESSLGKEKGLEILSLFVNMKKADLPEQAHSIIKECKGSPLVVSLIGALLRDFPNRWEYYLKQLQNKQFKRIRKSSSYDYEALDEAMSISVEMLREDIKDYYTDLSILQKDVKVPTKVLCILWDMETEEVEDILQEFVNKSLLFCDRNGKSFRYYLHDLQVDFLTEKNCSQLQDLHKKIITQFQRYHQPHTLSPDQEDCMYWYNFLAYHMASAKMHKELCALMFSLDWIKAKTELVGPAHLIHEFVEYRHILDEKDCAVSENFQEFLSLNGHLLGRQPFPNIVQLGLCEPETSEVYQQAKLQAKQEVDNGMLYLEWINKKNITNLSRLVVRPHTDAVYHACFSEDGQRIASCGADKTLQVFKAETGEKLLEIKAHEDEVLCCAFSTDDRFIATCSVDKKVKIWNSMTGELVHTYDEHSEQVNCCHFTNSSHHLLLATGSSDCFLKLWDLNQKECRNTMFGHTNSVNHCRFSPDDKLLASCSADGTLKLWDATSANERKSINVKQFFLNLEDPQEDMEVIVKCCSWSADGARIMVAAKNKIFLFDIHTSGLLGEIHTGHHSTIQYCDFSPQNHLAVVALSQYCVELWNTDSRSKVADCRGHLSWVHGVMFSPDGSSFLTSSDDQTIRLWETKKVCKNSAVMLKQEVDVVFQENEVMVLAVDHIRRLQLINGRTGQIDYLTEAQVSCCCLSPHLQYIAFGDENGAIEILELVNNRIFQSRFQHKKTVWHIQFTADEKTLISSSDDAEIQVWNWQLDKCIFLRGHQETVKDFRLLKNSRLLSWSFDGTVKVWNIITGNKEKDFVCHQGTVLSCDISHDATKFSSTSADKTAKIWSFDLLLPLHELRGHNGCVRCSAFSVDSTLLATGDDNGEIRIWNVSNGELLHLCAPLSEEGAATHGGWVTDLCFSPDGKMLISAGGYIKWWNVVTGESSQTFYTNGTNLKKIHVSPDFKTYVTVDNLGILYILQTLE
# [23] = Mcl1-dependent cancer cell viability – HMC-1-8 cells, luminescence, dry powder, selectivity assay for A1 inhibitor project, dose response (AID 504415); type: functional, cell-based; settings: Homo sapiens
# HEK293 [24] = assay: HEK293T cell viability loss, resazurin readout – resazurin fluorescence, cytotoxicity control for NF-kB activator project, SAR follow-up (AID 493251); type: functional, cell-based; settings: Homo sapiens
# Jurkat = assay: SAR Analysis of small molecule inhibitors of T-cell specific antigen receptor-induced NF-kB activation in a Jurkat cell line using a luminescence assay. [Related pubchem assays (depositor defined):AID435003, AID435012, AID465]; type: functional, cell-based; settings: Homo sapiens
# HEK293 [25] = assay: SAR Analysis of small molecule inhibitors of T-cell specific antigen receptor-induced NF-kB activation in a HEK-293T cell line using a luminescence assay. [Related pubchem assays (depositor defined):AID435003, AID435012, AID489026]; type: functional, cell-based; settings: Homo sapiens
smiles,measurement,setting,value
CCOc1ccc(C(C)=O)cc1COc1cccnc1[N+](=O)[O-],EC50,BJ [1],23.1 µM (active)
same,EC50,BJ [2],32.2 µM (active)
same,EC50,BJ [3],> 150 µM (inconclusive)
same,EC50,[4],21.9 µM (active)
same,AC50,[5],80.9 µM (active)
CC(C)c1ccc(NC2CCCN(C(=O)c3cc(C(C)C)n[nH]3)C2)cc1 (centres undefined),IC50,Cysteine protease ATG4B,16.8 µM (active)
same,IC50,Phospholipase A2,12.2 µM (active)
CC(C)(C)c1ccc(C(=O)O/N=C(\N)c2ccccn2)cc1,EC50,HEK293 [6],2.73 µM (active)
same,IC50,HEK293 [7],< 0.312 µM (active)
same,IC50,HEK293 [8],> 20 µM (inactive)
same,IC50,[9],23.1 µM (not active)
same,EC50,[10],0.04 µM (active)
same,IC50,HEK293 [11],3.04 µM (active)
same,IC50,HEK293 [12],> 20 µM (inactive)
same,IC50,Tumor necrosis factor,0.952 µM (active)
same,IC50,[13],2 µM (active)
same,IC50,[14],> 80 µM (inactive)
same,AC50,H4 [15],0.034 µM (active)
same,AC50,H4 [16],0.032 µM (active)
same,IC50,HEK293 [17],> 20 µM (inactive)
C=C(C)C(=O)Nc1cccc(C2=NOC3(C2)C[C@@H](C(N)=O)N(C(=O)c2ccc(Cl)cc2)C3)c1 (some centres undefined),IC50,[18],0.7 µM (active)
same,IC50,[19],1.54 µM (active)
same,IC50,[20],9.01 µM (active)
same,EC50,[21],0.73 µM (active)
same,EC50,[22],2.35 µM (active)
O=c1oc2ccccc2c(Sc2ccccc2)c1[N+](=O)[O-],AC50,[23],56.1 µM (active)
COc1ccc(C(NC(C)=O)c2ccc3cccnc3c2O)cc1 (centres undefined),IC50,HEK293 [24],16.5 µM (active)
same,IC50,Jurkat,4.23 µM (active)
same,IC50,HEK293 [25],6.35 µM (active)
